Assay results reported in patent US10377773B2, “Isothiazolopyrimidinones, pyrazolopyrimidinones, and pyrrolopyrimidinones as ubiquitin-specific protease 7 inhibitors” (FORMA Therapeutics, Inc., priority 2015, dated 2019).

Target: T1, USP7 (Homo sapiens, UniProt Q93009)
T1 construct: USP7, construct USP7 (208-1102) 6*His, Viva Biotech; initiator Met (N); TEV site (C); 6*His (C); purchased Viva Biotech
Experiment: USP7 Assay A and B (Ubiquitin-Rhodamine 110 assay)
Type: biochemical
Conditions: Ub-Rh110 substrate 25 nM, read-out: USP7_IC50
Method: Each assay was performed in a final volume of 15 μL in assay buffer containing 20 mM Tris-HCl (pH 8.0, (1M Tris-HCl, pH 8.0 solution; Corning 46-031-CM)), 1 mM GSH (L-Glutathione reduced; Sigma #G4251), 0.03% BGG (0.22 μM filtered, Sigma, #G7516-25G), and 0.01% Triton X-100 (Sigma, #T9284-10L). Nanoliter quantities of either an 8-point or 10-point, 3-fold serial dilution in DMSO was pre-dispensed into assay plates (Perkin Elmer, ProxiPlate-384 F Plus, #6008269) for a final test concentration range of either 25 μM to 11 nM or 25 μM to 1.3 nM, respectively. The final concentration of the enzyme (USP7, construct USP7 (208-1102) 6*His, Viva Biotech) in the assay was 62.5 pM. Final substrate (Ub-Rh110; Ubiquitin-Rhodamine 110, R&D Systems #U-555) concentration was 25 nM with [Ub-Rh110]<<Km. 5 μL of 2× enzyme was added to the assay plates (pre-stamped with compound) and preincubated with USP7 for 30 min. 5 μL of 2×Ub-Rh110 was then added to assay plates. Plates were incubated stacked for 20 min at room temperature before 5 μL of stop solution (final concentration of 10 mM citric acid in assay buffer (Sigma, #251275-500G)). Fluorescence was read on the Envision (Excitation at 485 nm and Emission at 535 nm; Perkin Elmer) or on the PheraSTAR (Excitation at 485 nm and Emission at 535 nm; BMG Labtech).
Each assay was performed in a final volume of 20 μL in assay buffer containing 20 mM Tris-HCl (pH 8.0, (1M Tris-HCl, pH 8.0 solution; Corning 46-031-CM)), 2 mM CaCl2 (1M calcium chloride solution; Sigma #21114), 1 mM GSH (L-Glutathione reduced; Sigma #G4251), 0.01% Prionex (0.22 μM filtered, Sigma #G-0411), and 0.01% Triton X-100. Stock compound solutions were stored at −20° C. as 10 mM in DMSO. Up to 1 month prior to the assay, 2 mM test compounds were pre-dispensed into assay plates (Black, low volume; Corning #3820) and frozen at −20° C. Prestamped assay plates were allowed to warm to room temperature on the day of the assay. For the screen, 100 nL of 2 mM was pre-dispensed for a final screening concentration of 10 μM (DMSO(fc)=0.5%). For follow-up studies, 250 nL of an 8-point, 3-fold serial dilution in DMSO was pre-dispensed into assay plates for a final test concentration of 25 μM-11 nM (1.25c % DMSO final concentration). Unless otherwise indicated, all follow-up assays were run on triplecate plates. Enzyme (USP7, construct Met (208-1102)-TEV-6*His; Viva Q93009-1) concentration and incubation times were optimized for the maximal signal-to-background while maintaining initial velocity conditions at a fixed substrate concentration. The final concentration of the enzyme in the assay was either 75 pM or 250 pM. Final substrate (Ub-Rh110; Ubiquitin-Rhodamine 110, R&D Systems (biotechne)#U-555) concentration was 25 nM with [Ub-Rh110]<<Km. Compounds were either not preincubated or preincubated with USP7 between 30 to 120 min prior to the addition of 10 μL of 2×Ub-Rh110 to compound plates. Plates were incubated stacked for either 23 or 45 min at room temperature before fluorescence was read on the Envision (Excitation at 485 nm and Emission at 535 nm; Perkin Elmer) or on the PheraSTAR (Excitation at 485 nm and Emission at 535 nm; BMG Labtech).
Data from USP7 Assays A and B were reported as percent inhibition (inh) compared with control wells based on the following equation: % inh=1−((FLU−AveLow)/(AveHigh−AveLow)) where FLU=measured Fluorescence, AveLow=average Fluorescence of no enzyme control (n=16), and AveHigh=average Fluorescence of DMSO control (n=16). IC50 values were determined by curve fitting of the standard 4 parameter logistic fitting algorithm included in the Activity Base software package: IDBS XE Designer Model205. Data was fitted using the Levenburg Marquardt algorithm.

T1 sequence (Q93009 208-1102): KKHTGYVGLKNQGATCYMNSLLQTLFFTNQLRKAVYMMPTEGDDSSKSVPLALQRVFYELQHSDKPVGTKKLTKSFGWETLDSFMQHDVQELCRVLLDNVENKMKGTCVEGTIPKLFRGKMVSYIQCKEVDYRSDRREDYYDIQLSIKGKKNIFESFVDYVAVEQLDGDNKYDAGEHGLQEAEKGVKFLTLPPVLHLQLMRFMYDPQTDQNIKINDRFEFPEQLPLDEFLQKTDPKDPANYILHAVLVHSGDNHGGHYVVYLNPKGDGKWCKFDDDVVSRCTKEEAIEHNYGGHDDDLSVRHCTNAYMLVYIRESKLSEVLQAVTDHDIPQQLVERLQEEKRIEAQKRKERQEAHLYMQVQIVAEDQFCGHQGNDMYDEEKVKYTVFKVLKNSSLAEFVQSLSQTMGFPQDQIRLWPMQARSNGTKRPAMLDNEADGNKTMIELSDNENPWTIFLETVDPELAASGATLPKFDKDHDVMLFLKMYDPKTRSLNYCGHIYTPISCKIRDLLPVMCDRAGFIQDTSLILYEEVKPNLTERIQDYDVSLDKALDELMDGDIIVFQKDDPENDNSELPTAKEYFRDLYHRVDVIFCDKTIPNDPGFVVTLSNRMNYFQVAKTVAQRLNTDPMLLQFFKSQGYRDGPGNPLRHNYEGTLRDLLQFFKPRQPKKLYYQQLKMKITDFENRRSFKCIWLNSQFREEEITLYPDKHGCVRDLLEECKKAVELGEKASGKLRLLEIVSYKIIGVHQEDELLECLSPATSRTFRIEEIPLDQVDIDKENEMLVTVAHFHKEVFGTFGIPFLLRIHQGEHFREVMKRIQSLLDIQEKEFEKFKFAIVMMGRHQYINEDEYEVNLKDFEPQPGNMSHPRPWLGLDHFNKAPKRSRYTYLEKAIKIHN

Row | Compound | IC50 [µM]
1 | 3-(4-fluoro-3-methoxyphenyl)-6-{[1-(4-fluorobenzoyl)-4-hydroxypiperidin-4-yl]methyl}-6H,7H-[1,2]thiazolo[4,5-d]pyrimidin-7-one [Compound I-9] | > 10
2 | O=C(c1ccc(F)cc1)N1CCC(O)(Cn2cnc3c(-c4ccccc4)nsc3c2=O)CC1 [Compound I-1, 6-{[1-(4-fluorobenzoyl)-4-hydroxypiperidin-4-yl]methyl}-3-phenyl-6H,7H-[1,2]thiazolo[4,5-d]pyrimidin-7-one] | > 10
3 | COc1ccc(-c2nsc3c(=O)n(CC4(O)CCN(C(=O)c5ccc(F)cc5)CC4)cnc23)cc1 [Compound I-2, 6-{[1-(4-fluorobenzoyl)-4-hydroxypiperidin-4-yl]methyl}-3-(4-methoxyphenyl)-6H,7H-[1,2]thiazolo[4,5-d]pyrimidin-7-one] | 1 to 10
4 | COc1ccc(C(=O)N2CCC(O)(Cn3cnc4c(-c5ccc(F)cc5)nsc4c3=O)CC2)cc1 [Compound I-3, 3-(4-fluorophenyl)-6-{[4-hydroxy-1-(4-methoxybenzoyl)piperidin-4-yl]methyl}-6H,7H-[1,2]thiazolo[4,5-d]pyrimidin-7-one] | 1 to 10
5 | O=C(c1ccc(F)cc1)N1CCC(O)(Cn2cnc3c(-c4cccc(CO)c4)nsc3c2=O)CC1 [Compound I-4, 6-{[1-(4-fluorobenzoyl)-4-hydroxypiperidin-4-yl]methyl}-3-[3-(hydroxymethyl)phenyl]-6H,7H-[1,2]thiazolo[4,5-d]pyrimidin-7-one] | 1 to 10
6 | O=C(c1ccc(F)cc1)N1CCC(O)(Cn2cnc3c(-c4ccc(F)cc4)n[nH]c3c2=O)CC1 [Compound I-5, 6-{[1-(4-fluorobenzoyl)-4-hydroxypiperidin-4-yl]methyl}-3-(4-fluorophenyl)-1H,6H,7H-pyrazolo[4,3-d]pyrimidin-7-one] | 0.5 to 1
7 | COc1ccc(-c2n[nH]c3c(=O)n(CC4(O)CCN(C(=O)c5ccc(F)cc5)CC4)cnc23)cc1 [Compound I-6, 6-{[1-(4-fluorobenzoyl)-4-hydroxypiperidin-4-yl]methyl}-3-(4-methoxyphenyl)-1H, 6H,7H-pyrazolo[4,3-d]pyrimidin-7-one] | < 0.5
8 | COc1ccc(C(=O)N2CCC(O)(Cn3cnc4c(-c5ccccc5)n[nH]c4c3=O)CC2)cc1 [Compound I-7, 6-{[4-hydroxy-1-(4-methoxybenzoyl)piperidin-4-yl]methyl}-3-phenyl-1H,6H,7H-pyrazolo[4,3-d]pyrimidin-7-one] | 1 to 10
9 | COc1ccc(C(=O)N2CCC(O)(Cn3cnc4c(-c5ccccc5)nsc4c3=O)CC2)cc1 [Compound I-8, 6-{[4-hydroxy-1-(4-methoxybenzoyl)piperidin-4-yl]methyl}-3-phenyl-6H,7H-[1,2]thiazolo[4,5-d]pyrimidin-7-one] | 1 to 10
10 | CN1CCN(c2ccc(C(=O)N3CCC(O)(Cn4cnc5c(-c6ccc(F)cc6)nsc5c4=O)CC3)nc2)CC1 [Compound I-10, 3-(4-fluorophenyl)-6-({4-hydroxy-1-[5-(4-methylpiperazin-1-yl)pyridine-2-carbonyl]piperidin-4-yl}methyl)-6H,7H-[1,2]thiazolo[4,5-d]pyrimidin-7-one] | > 10
11 | CC(CC(=O)N1CCC(O)(Cn2cnc3c(-c4ccccc4)nsc3c2=O)CC1)c1ccccc1 (stereo not shown) [Compound I-11, 6-{[4-hydroxy-1-(3-phenylbutanoyl)piperidin-4-yl]methyl}-3-phenyl-6H,7H-[1,2]thiazolo[4,5-d]pyrimidin-7-one] | 0.5 to 1
12 | C[C@@H](CC(=O)N1CCC(O)(Cn2cnc3c(-c4ccccc4)nsc3c2=O)CC1)c1ccccc1 [Compound I-12, 6-({4-hydroxy-1-[(3 S)-3-phenylbutanoyl]piperidin-4-yl}methyl)-3-phenyl-6H,7H-[1,2]thiazolo[4,5-d]pyrimidin-7-one] | < 0.5
13 | C[C@H](CC(=O)N1CCC(O)(Cn2cnc3c(-c4ccccc4)nsc3c2=O)CC1)c1ccccc1 [Compound I-13, 6-({4-hydroxy-1-[(3R)-3-phenylbutanoyl]piperidin-4-yl}methyl)-3-phenyl-6H,7H-[1,2]thiazolo[4,5-d]pyrimidin-7-one] | 1 to 10
14 | CC(CC(=O)N1CCC(O)(Cn2cnc3c(-c4ccccc4)nsc3c2=O)CC1)n1cccn1 (stereo not shown) [Compound I-14, 6-({4-hydroxy-1-[3-(1H-pyrazol-1-yl)butanoyl]piperidin-4-yl}methyl)-3-phenyl-6H,7H-[1,2]thiazolo[4,5-d]pyrimidin-7-one] | 1 to 10
15 | C[C@@H](CC(=O)N1CCC(O)(Cn2cnc3c(-c4ccccc4)nsc3c2=O)CC1)n1cccn1 [Compound I-15, 6-({4-hydroxy-1-[(3 S)-3-(1H-pyrazol-1-yl)butanoyl]piperidin-4-yl}methyl)-3-phenyl-6H,7H-[1,2]thiazolo[4,5-d]pyrimidin-7-one] | 1 to 10
16 | C[C@H](CC(=O)N1CCC(O)(Cn2cnc3c(-c4ccccc4)nsc3c2=O)CC1)n1cccn1 [Compound I-16, 6-({4-hydroxy-1-[(3R)-3-(1H-pyrazol-1-yl)butanoyl]piperidin-4-yl}methyl)-3-phenyl-6H,7H-[1,2]thiazolo[4,5-d]pyrimidin-7-one] | 1 to 10
17 | O=C(CC(c1ccccc1)C(F)F)N1CCC(O)(Cn2cnc3c(-c4ccccc4)nsc3c2=O)CC1 (stereo not shown) [Compound I-17, 6-{[1-(4,4-difluoro-3-phenylbutanoyl)-4-hydroxypiperidin-4-yl]methyl}-3-phenyl-6H,7H-[1,2]thiazolo[4,5-d]pyrimidin-7-one] | 1 to 10
18 | O=C(C[C@H](c1ccccc1)C(F)F)N1CCC(O)(Cn2cnc3c(-c4ccccc4)nsc3c2=O)CC1 [Compound I-18, 6-({1-[(3R)-4,4-difluoro-3-phenylbutanoyl]-4-hydroxypiperidin-4-yl}methyl)-3-phenyl-6H,7H-[1,2]thiazolo[4,5-d]pyrimidin-7-one] | > 10
19 | O=C(C[C@@H](c1ccccc1)C(F)F)N1CCC(O)(Cn2cnc3c(-c4ccccc4)nsc3c2=O)CC1 [Compound I-19, 6-({1-[(3 S)-4,4-difluoro-3-phenylbutanoyl]-4-hydroxypiperidin-4-yl}methyl)-3-phenyl-6H, 7H-[1,2]thiazolo[4,5-d]pyrimidin-7-one] | 0.5 to 1
20 | COc1ccc(C(=O)N2CCC(O)(Cn3cnc4c(-c5ccc(F)cc5)n[nH]c4c3=O)CC2)cc1 [Compound I-20, 3-(4-fluorophenyl)-6-{[4-hydroxy-1-(4-methoxybenzoyl)piperidin-4-yl]methyl}-1H, 6H,7H-pyrazolo[4,3-d]pyrimidin-7-one] | 1 to 10
21 | COc1ccc(C(=O)N2CCC(O)(Cn3cnc4c(-c5ccc(OC)cc5)n[nH]c4c3=O)CC2)cc1 [Compound I-21, 6-{[4-hydroxy-1-(4-methoxybenzoyl)piperidin-4-yl]methyl}-3-(4-methoxyphenyl)-1H,6H,7H-pyrazolo[4,3-d]pyrimidin-7-one] | 0.5 to 1
22 | CN(C)C(=O)N1CCC(O)(Cn2cnc3c(-c4ccc(F)c(N5CCNCC5)c4)nsc3c2=O)CC1 [Compound I-22, 4-({3-[4-fluoro-3-(piperazin-1-yl)phenyl]-7-oxo-6H,7H-[1,2]thiazolo[4,5-d]pyrimidin-6-yl}methyl)-4-hydroxy-N,N-dimethylpiperidine-1-carboxamide] | 1 to 10
